Laboratory results reported in US10538497B2, “Compounds as indoleamine 2,3-dioxygenase inhibitors” (Merck Sharp & Dohme Corp., priority 2015, dated 2020).

Assays:
[1] = target: T1, IDO1 (Homo sapiens (Human), UniProt P14902); experiment: IDO1 Cellular Assay in Hela Cells Stimulated with IFNγ; type: cell-based; settings: Hela cells stimulated with IFNγ 100 ng/mL; read-out: IDO1 HELA Cell Assay, IC50
[2] = target: T1, IDO1; experiment: IDO1 Enzyme Assay; settings: HIS-tagged recombinant IDO1, 40 nM
[3] = target: T1, IDO1; experiment: IDO1 Cellular Assay in Frozen HEK293 Cells Transiently Transfected with Human IDO1; type: cell-based; settings: HEK293 cells transiently transfected with human IDO1; read-out: IDO1 HEK293 Cell Assay, IC50
[4] = read-out: IDO1 Enzyme Assay, IC50

T1 sequence (P14902 whole entry): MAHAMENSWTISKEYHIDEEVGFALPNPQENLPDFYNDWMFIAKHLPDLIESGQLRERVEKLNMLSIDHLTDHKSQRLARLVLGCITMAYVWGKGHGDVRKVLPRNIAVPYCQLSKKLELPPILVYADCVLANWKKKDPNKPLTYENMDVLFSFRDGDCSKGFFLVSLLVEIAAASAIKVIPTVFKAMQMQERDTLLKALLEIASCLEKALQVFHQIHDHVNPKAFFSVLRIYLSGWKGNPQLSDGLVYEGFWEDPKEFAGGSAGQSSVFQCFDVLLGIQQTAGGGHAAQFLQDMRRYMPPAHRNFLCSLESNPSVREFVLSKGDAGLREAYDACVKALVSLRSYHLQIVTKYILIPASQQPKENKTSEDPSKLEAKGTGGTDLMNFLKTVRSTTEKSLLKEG

Structure (SMILES) | IC50 [1] [nM] | IC50 ([2]; IDO1 Enzyme Assay, IC50, nM) [nM] | IC50 [3] [nM] | IC50 [2, 4] [nM]
ON=C(Nc1ccc(F)c(Br)c1)c1nonc1SCC1CCOCC1 [Example 162, N-(3-bromo-4-fluorophenyl)-N′-hydroxy-4-[(tetrahydro-2H-pyran-4-ylmethyl)sulfanyl]-1,2,5-oxadiazole-3-carboximidamide] | 322 | 111 | 167 | –
ON=C(Nc1ccc(F)c(Br)c1)c1nonc1SCCN1CCNCC1 [Example 163, N-(3-bromo-4-fluorophenyl)-N′-hydroxy-4-[(2-piperazin-1-ylethyl)sulfanyl]-1,2,5-oxadiazole-3-carboximidamide] | 405 | 161 | 181 | –
CN1CCN(CCSc2nonc2C(=NO)Nc2ccc(F)c(Br)c2)CC1 [Example 164, N-(3-bromo-4-fluorophenyl)-N′-hydroxy-4-{[2-(4-methvlpiperazin-1-yl)ethyl]sulfanyl}-1,2,5-oxadiazole-3-carboximidamide] | 246 | – | 91.5 | 62.2
OC[C@@H](O)CSc1nonc1/C(=N/O)Nc1ccc(F)c(C(F)(F)F)c1 [Example 165, 4-{[(2R)-2,3-dihydroxypropyl]sulfanyl}-N-[4-fluoro-3-(trifluoromethyl)phenyl]-N′-hydroxy-1,2,5-oxadiazole-3-carboximidamide] | 159 | – | 130 | 126
OC[C@H](O)CSc1nonc1/C(=N/O)Nc1ccc(F)c(C(F)(F)F)c1 [Example 166, 4-{[(2S)-2,3-dihydroxypropyl]sulfanyl}-N-[4-fluoro-3-(trifluoromethyl)phenyl]-N′-hydroxy-1,2,5-oxadiazole-3-carboximidamide] | 138 | – | 114 | 126
OC[C@H](O)CSc1nonc1/C(=N/O)Nc1ccc(F)c(C(F)F)c1 [Example 167, N-[3-(difluoromethyl)-4-fluorophenyl]-4-{[(2S)-2,3-dihydroxypropyl]sulfanyl}-N′-hydroxy-1,2,5-oxadiazole-3-carboximidamide] | 97.3 | – | 110 | 142
OC[C@H](O)CSc1nonc1/C(=N/O)Nc1ccc(F)c(Cl)c1 [Example 170, N-(3-chloro-4-fluorophenyl)-4-{[(2S)-2,3-dihydroxypropyl]sulfanyl}-N′-hydroxy-1,2,5-oxadiazole-3-carboximidamide] | 110 | – | 132 | 68.4
ON=C(Nc1ccc(F)c(Br)c1)c1nonc1SCCn1ccnc1 [Example 172, N-(3-bromo-4-fluorophenyl)-N′-hydroxy-4-{[2-(1H-imidazol-1-yl)ethyl]sulfanyl}-1,2,5-oxadiazole-3-carboximidamide] | 43.4 | 78.6 | 47.5 | –
CC(CO)(CO)NC(=O)CSc1nonc1/C(=N/O)Nc1ccc(F)c(Br)c1 [Example 174, 2-({4-[N-(3-bromo-4-fluorophenyl)-N′-hydroxycarbamimidoyl]-1,2,5-oxadiazol-3-yl}sulfanyl)-N-[2-hydroxy-1-(hydroxymethyl)-1-methylethyl]acetamide] | 63.6 | – | 113 | 82.7
CC(O)C(CO)NC(=O)CSc1nonc1/C(=N/O)Nc1ccc(F)c(Br)c1 (stereo not drawn) [Example 176, 2-({4-[N-(3-bromo-4-fluorophenyl)-N′-hydroxycarbamimidoyl]-1,2,5-oxadiazol-3-yl}sulfanyl)-N-[2-hydroxy-1-(hydroxymethyl)propyl]acetamide] | 127 | – | 182 | 116
O=C(CSc1nonc1/C(=N/O)Nc1ccc(F)c(Br)c1)N[C@H]1C[C@@H](O)[C@@H](O)C1 [Example 177, 2-({4-[N-(3-bromo-4-fluorophenyl)-N′-hydroxycarbamimidoyl]-1,2.5-oxadiazol-3-yl}sulfanyl)-N-[(1r,3R,4S)-3,4-dihydroxycyclopentyl]acetamide] | 469 | – | 411 | 97.3
CC(=O)N[C@@H](C)CSc1nonc1/C(=N/O)Nc1ccc(F)c(C#N)c1 [Example 180, N-[(1S)-2-({4-[N-(3-cyano-4-fluorophenyl)-N′-hydroxycarbamimidoyl]-1,2,5-oxadiazol-3-yl}sulfanyl)-1-methylethyl]acetamide] | 426 | – | 309 | 196
CS(=O)(=O)NCCSc1nonc1/C(=N/O)Nc1ccc(F)c(C(F)F)c1 [Example 183, N-[3-(difluoromethyl)-4-fluorophenyl]-N′-hydroxy-4-({2-[(methylsulfonyl)amino]ethyl}sulfanyl)-1,2,5-oxadiazole-3-carboximidamide] | 58.2 | – | 25.6 | 52.5
CS(=O)(=O)NCCSc1nonc1/C(=N/O)Nc1ccc(F)c(Cl)c1 [Example 184, N-(3-chloro-4-fluorophenyl)-N′-hydroxy-4-({2-[(methylsulfonyl)amino]ethyl}sulfanyl)-1,2,5-oxadiazole-3-carboximidamide] | 47.4 | – | 16.1 | 50.9
N#Cc1cc(N/C(=N\O)c2nonc2SCC(=O)NC2COC2)ccc1F [Example 186, 2-({4-[N-(3-cyano-4-fluorophenyl)-N′-hydroxycarbamimidoyl]-1,2,5-oxadiazol-3-yl}sulfanyl)-N-oxetan-3-ylacetamide] | 322 | – | 412 | 180
N#Cc1cc(N/C(=N\O)c2nonc2SCCNC(=O)[C@H]2CC2(F)F)ccc1F [Example 187, (1R)-N-[2-({4-[N-(3-cyano-4-fluorophenyl)-N′-hydroxycarbamimidoyl]-1,2,5-oxadiazol-3-yl}sulfanyl)ethyl]-2,2-difluorocyclopropanecarboxamide] | 272 | – | 140 | 86
N#Cc1cc(N/C(=N\O)c2nonc2SCCNC(=O)[C@@H]2CC2(F)F)ccc1F [Example 188, (1S)-N-[2-({4-[N-(3-cyano-4-fluorophenyl)-N′-hydroxycarbamimidoyl]-1,2,5-oxadiazol-3-yl}sulfanyl)ethyl]-2,2-difluorocyclopropanecarboxamide] | 173 | – | 87.7 | 87.9
CN(C)CCSc1nsnc1/C(=N/O)Nc1ccc(F)c(Br)c1 [Example 209, N-(3-bromo-4-fluorophenyl)-4-{[2-(dimethylamino)ethyl]sulfanyl}-N′-hydroxy-1,2,5-thiadiazole-3-carboximidamide] | 968 | – | 770 | 1280
